Test results: patent US10925874B2, “Substituted pyrazolopyrimidines as glucocerebrosidase activators” (The United States of America, as Represented by the …, priority 2010, dated 2021)
Values joined by “and” are separate entries in the source; they are usually repeats but may differ in a detail not shown here. Equal values may be shown once.

Target: T1, N370S glucocerebrosidase from human spleen homogenate (Homo sapiens, UniProt P04062, N409S)
T1 construct: N370S glucocerebrosidase from human spleen homogenate as the enzyme preparation; from tissue; host or cells: human spleen homogenate
T1 sequence (P04062 40-536 N409S): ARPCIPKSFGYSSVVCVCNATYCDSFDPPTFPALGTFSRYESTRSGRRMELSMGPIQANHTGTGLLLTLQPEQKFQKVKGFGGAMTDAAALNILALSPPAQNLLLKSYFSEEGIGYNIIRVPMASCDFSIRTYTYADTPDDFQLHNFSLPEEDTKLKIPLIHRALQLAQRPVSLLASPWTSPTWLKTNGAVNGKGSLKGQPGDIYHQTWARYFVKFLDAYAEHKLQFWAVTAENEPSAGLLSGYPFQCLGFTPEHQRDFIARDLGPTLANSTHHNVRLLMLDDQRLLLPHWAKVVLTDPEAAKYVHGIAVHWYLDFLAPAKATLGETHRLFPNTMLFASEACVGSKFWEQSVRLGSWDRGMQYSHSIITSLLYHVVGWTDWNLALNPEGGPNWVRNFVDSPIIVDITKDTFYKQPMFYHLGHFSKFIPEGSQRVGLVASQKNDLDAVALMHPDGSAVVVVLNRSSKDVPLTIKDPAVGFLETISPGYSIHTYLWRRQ
Test: qHTS fluorogenic enzyme assay for activators of N370S glucocerebrosidase (4-methylumbelliferyl-beta-D-glucopyranoside substrate)
Assay type: biochemical
Settings: pH 5.0, 37° C. 40 min
Source text: qHTS Assay for Inhibitors and Activators of N370S glucocerebrosidase as a Potential Chaperone Treatment of Gaucher Disease: Primary Screen Confirmation
This is a fluorogenic enzyme assay with 4-methylumbelliferyl-beta-D-glucopyranoside as the substrate and N370S glucocerebrosidase from human spleen homogenate as the enzyme preparation. Upon the hydrolysis of this fluorogenic substrate, the resulting product, […] which can be detected by a standard fluorescence plate reader. Data were normalized to the controls for basal activity (without enzyme) and 100% activity (with enzyme). The AC50 values were determined from concentration-response data modeled with the standard Hill equation.
Human spleen homogenate is prepared as follows by homogenizing spleen with assay buffer containing 50 mM citric acid (titrated with potassium phosphate to pH 5.0), 100 mM potassium chloride, 10 mM sodium chloride, 1 mM magnesium chloride, 0.01% Tween-20. The protein concentration of the human spleen homogenate is approximated 1.35 ug/ul.
The assay is performed in 1536 well plates according to the following protocol. (1) 2 ul spleen homogenate ([…] final) is added to each well. (2) 23 nL test compound in DMSO solution is added to each well. The final concentration of compound in the test well is 0.5 nM to 58 uM. (3) 2 ul of substrate (1 mM final) are added to each well. (4) Incubate assay plates at 37° C. for 40 min. (5) Add 2 ul stop solution (1M NaOH and 1M Glycine mixture, pH 10) to each well. (6) Detect the assay plate in a ViewLux plate reader (PerkinElmer) using 365 nm excitation with emission at 440 nm.

O=C(Nc1ccc(Br)cc1F)c1cnn2c1NC(=C1CC1)C=C2C(F)F [NCGC00182179-01, N-(4-bromo-2-fluorophenyl)-5-cyclopropylidene-7-(difluoromethyl)-4,5-dihydropyrazolo[1,5-a]pyrimidine-3-carboxamide]
AC50: 2.51 µM

CC(C)(C)C1CCC(NC(=O)c2cnn3c2NC(=C2CC2)C=C3C(F)F)CC1 (centres unmarked) [NCGC00182182-01, N-(4-tet-butylcyclohexyl)-5-cyclopropylidene-7-(difluoromethyl)-4,5-dihydropyrazolo[1,5-a]pyrimidine-3-carboxamide]
AC50: 11.2 µM

O=C(Nc1cccc(Nc2ccccc2)c1)c1cnn2c1NC(=C1CC1)C=C2C(F)F [NCGC00182185-01, 5-cyclopropylidene-7-(difluoromethyl)-N-(3-(phenylamino)phenyl)-4,5-dihydropyrazolo[1,5-a]pyrimidine-3-carboxamide]
AC50: 12.6 µM

O=C(Nc1ccccc1Sc1ccccc1)c1cnn2c1NC(=C1CC1)C=C2C(F)F [NCGC00182186-01, 5-cyclopropylidene-7-(difluoromethyl)-N-(2-(phenylthio)phenyl)-4,5-dihydropyrazolo[1,5-a]pyrimidine-3-carboxamide]
AC50: 13 µM and 7.08 µM

O=C(Nc1ccccc1Br)c1cnn2c1NC(=C1CC1)C=C2C(F)F [NCGC00182188-01, N-(2-bromophenyl)-5-cyclopropylidene-7-(difluoromethyl)-4,5-dihydropyrazolo[1,5-a]pyrimidine-3-carboxamide]
AC50: 12.6 µM

O=C(Nc1ccccc1Sc1ccccc1)c1cnn2c1NC(=C1CC1)C=C2C(F)(F)F [NCGC00182190-01, 5-cyclopropylidene-N-(2-(phenylthio)phenyl)-7-(trifluoromethyl)-4,5-dihydropyrazolo[1,5-a]pyrimidine-3-carboxamide]
AC50: 14.1 µM

C=C1C=C(C)n2ncc(C(=O)NCCCCCC)c2N1 [NCGC00182197-01, N-hexyl-7-methyl-5-methylene-4,5-dihydropyrazolo[1,5-a]pyrimidine-3-carboxamide]
AC50: 15.8 µM

C=C1C=C(C)n2ncc(C(=O)Nc3ccc(C)cn3)c2N1 [NCGC00182198-01, 7-methyl-5-methylene-N-(5-methylpyridin-2-yl)-4,5-dihydropyrazolo[1,5-a]pyrimidine-3-carboxamide]
AC50: 15.8 µM

Cc1cc(C)n2ncc(C(=O)NCc3cccc(Cl)c3)c2n1 [NCGC00187965-01, N-(3-chlorobenzyl)-5,7-dimethylpyrazolo[1,5-a]pyrimidine-3-carboxamide]
AC50: 18.3 µM

Cc1cc(C)n2ncc(C(=O)Nc3cc(F)cc(F)c3)c2n1 [NCGC00187967-01, N-(3,5-difluorophenyl)-5,7-dimethylpyrazolo[1,5-a]pyrimidine-3-carboxamide]
AC50: 6.18 µM

Cc1cc(C)n2ncc(C(=O)Nc3ccc4c(c3)CCC4)c2n1 [NCGC00187969-01, N-(2,3-dihydro-1H-inden-5-yl)-5,7-dimethylpyrazolo[1,5-a]pyrimidine-3-carboxamide]
AC50: 2.59 µM

CCc1ccc(NC(=O)c2cnn3c(C)cc(C)nc23)cc1 [NCGC00187970-01, N-(4-ethylphenyl)-5,7-dimethylpyrazolo[1,5-a]pyrimidine-3-carboxamide]
AC50: 3.26 µM

Cc1cc(C)n2ncc(C(=O)NC3CCCCC3)c2n1 [NCGC00187971-01, N-cyclohexyl-5,7-dimethylpyrazolo[1,5-a]pyrimidine-3-carboxamide]
AC50: 10.3 µM

Cc1cc(C)n2ncc(C(=O)Nc3ccccc3)c2n1 [NCGC00187975-01, 5,7-dimethyl-N-phenylpyrazolo[1,5-a]pyrimidine-3-carboxamide]
AC50: 8.19 µM

Cc1cc(C)n2ncc(C(=O)NCc3ccccc3)c2n1 [NCGC00187976-01, N-benzyl-5,7-dimethylpyrazolo[1,5-a]pyrimidine-3-carboxamide]
AC50: 51.7 µM

Cc1cc(C)n2ncc(C(=O)NCC(C)C)c2n1 [NCGC00187978-01, N-isobutyl-5,7-dimethylpyrazolo[,15-a]pyrimidine-3-carboxamide]
AC50: 32.6 µM

Cc1cc(C)n2ncc(C(=O)NC3CCC(C(C)(C)C)CC3)c2n1 (centres unmarked) [NCGC00188754-01, N-(4-tert-butylcyclohexyl)-5,7-dimethylpyrazolo[1,5-a]pyrimidine-3-carboxamide]
AC50: 25.9 µM

Cc1cc(C)n2ncc(C(=O)NC3CCC(C(C)(C)C)CC3)c2n1 (centres unmarked) [NCGC00188755-01, N-(4-tert-butylcyclohexyl)-5,7-dimethylpyrazolo[1,5-a]pyrimidine-3-carboxamide]
AC50: 4.11 µM

Cc1cc(C)n2ncc(C(=O)Nc3ccc(Br)cc3)c2n1 [NCGC00188756-01, N-(4-bromophenyl)-5,7-dimethylpyrazolo[1,5-a]pyrimidine-3-carboxamide]
AC50: 2.06 µM

Cc1cc(C)n2ncc(C(=O)NCc3ccco3)c2n1 [NCGC00188759-01, N-(furan-2-ylmethyl)-5,7-dimethylpyrazolo[1,5-a]pyrimidine-3-carboxamide]
AC50: 51.7 µM

Cc1cc(C)n2ncc(C(=O)Nc3cnc4ccccc4c3)c2n1 [NCGC00188762-01, 5,7-dimethyl-N-(quinolin-3-yl)pyrazolo[1,5-a]pyrimidine-3-carboxamide]
AC50: 16.3 µM

Cc1cc(C)n2ncc(C(=O)Nc3ccc4ccccc4n3)c2n1 [NCGC00188763-01, 5,7-dimethyl-N-(quinolin-2-yl)pyrazolo[1,5-a]pyrimidine-3-carboxamide]
AC50: 20.6 µM

Cc1cc(C)n2ncc(C(=O)Nc3ccc(C(C)(C)C)cc3)c2n1 [NCGC00188764-01, N-(4-tert-butylphenyl)-5,7-dimethylpyrazolo[1,5-a]pyrimidine-3-carboxamide]
AC50: 2.31 µM

Cc1cc(C)n2ncc(C(=O)Nc3ccc(F)cc3)c2n1 [NCGC00188766-01, N-(4-fluorophenyl)-5,7-dimethylpyrazolo[1,5-a]pyrimidine-3-carboxamide]
AC50: 5.8 µM

COc1ccc(NC(=O)c2cnn3c(C)cc(C)nc23)cc1 [NCGC00188768-01, N-(4-methoxyphenyl)-5,7-dimethylpyrazolo[1,5-a]pyrimidine-3-carboxamide]
AC50: 8.19 µM

Cc1cc(C)n2ncc(C(=O)Nc3ccc(C#N)cc3)c2n1 [NCGC00188769-01, N-(4-cyanophenyl)-5,7-dimethylpyrazolo[1,5-a]pyrimidine-3-carboxamide]
AC50: 20.6 µM

Cc1cc(C)n2ncc(C(=O)Nc3ccccc3C)c2n1 [NCGC00188770-01, 5,7-dimethyl-N-o-tolylpyrazolo[1,5-a]pyrimidine-3-carboxamide]
AC50: 16.3 µM

Cc1cccc(NC(=O)c2cnn3c(C)cc(C)nc23)c1 [NCGC00188771-01, 5,7-dimethyl-N-m-tolylpyrazolo[1,5-a]pyrimidine-3-carboxamide]
AC50: 6.51 µM

Cc1ccc(NC(=O)c2cnn3c(C)cc(C)nc23)cc1 [NCGC00188772-01, 5,7-dimethyl-N-p-tolylpyrazolo[1,5-a]pyrimidine-3-carboxamide]
AC50: 1.63 µM

Cc1cc(C)n2ncc(C(=O)Nc3ccc4c(c3)OCCO4)c2n1 [NCGC00188773-01, N-(2,3-dihydrobenzo[b][1,4]dioxin-6-yl)-5,7-dimethylpyrazolo[1,5-a]pyrimidine-3-carboxamide]
AC50: 10.3 µM

COc1ccc(NC(=O)c2cnn3c(C)cc(C)nc23)c(C)c1 [NCGC00188774-01, N-(4-methoxy-2-methylphenyl)-5,7-dimethylpyrazolo[1,5-a]pyrimidine-3-carboxamide]
AC50: 51.7 µM

COc1ccc(NC(=O)c2cnn3c(C)cc(C)nc23)cc1F [NCGC00188776-01, N-(3-fluoro-4-methoxyphenyl)-5,7-dimethylpyrazolo[,15-a]pyrimidine-3-carboxamide]
AC50: 1.46 µM

Cc1ccc(NC(=O)c2cnn3c(C)cc(C)nc23)c(C)c1 [NCGC00188778-01, N-(2,4-dimethylphenyl)-5,7-dimethylpyrazolo[1,5-a]pyrimidine-3-carboxamide]
AC50: 13 µM

Cc1ccc(NC(=O)c2cnn3c(C)cc(C)nc23)c(F)c1 [NCGC00188779-01, N-(2-fluoro-4-methylphenyl)-5,7-dimethylpyrazolo[1,5-a]pyrimidine-3-carboxamide]
AC50: 11.6 µM

COc1ccc(NC(=O)c2cnn3c(C)cc(C)nc23)cc1Cl [NCGC00188780-01, N-(3-chloro-4-methoxyphenyl)-5,7-dimethylpyrazolo[1,5-a]pyrimidine-3-carboxamide]
AC50: 2.06 µM
